These results are taken from patent publication US7064139B2, “Method for treating retroviral infections” (Uniroyal Chemical Company, Inc., priority 2001, dated 2006).

Converted amounts (≈) assume the structure as drawn. Read-outs that look alike come from different tables or passages of the source.

Data set [1] has as its system HIV-1 (IIIB). As to the kind of experiment: microbe, parasite or virus in culture. In kind it is cell-based. Particulars: Human immunodeficiency virus 1, IIIB, CCRF-CEM; CEM cells, syncytium formation, day four post infection; read-out: EC50 (ug/ml) HIV-1. A digest of the protocol:
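Human T-lymphoblast CEM cells at roughly 300,000 cells per ml were infected with about 100 CCID50 of HIV-1 (IIIB). Then 100 μl of the infected suspension went into 200 μl microtiter wells holding 100 μl of 5-fold serial compound dilutions. Inhibition of syncytium formation was scored microscopically on day four post infection, and protection against virus-induced cytopathicity was recorded.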

Data set [2] relates to Davis strain CMV. As to the kind of experiment: Reduction of CMV-induced cytopathicity in HEL cells. As to conditions: HEL cells; for EC50: Human betaherpesvirus 5, 168 h, virus-induced cytopathicity after seven days, read-out: Antiviral EC50 (ug/ml) Davis strain CMV. In kind it is cell-based, human cytomegalovirus (HCMV). An outline of the steps:
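Confluent HEL cells were infected with 100 PFU/well CMV for 1–2 h, then washed and kept in MEM with 2% FCS and test compound. EC50 is the concentration cutting virus-induced cytopathicity by 50% versus untreated control at day 7. Where cytotoxicity interfered, percent protection at the stated concentration is given.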

For data set [3], the system named is MOLT-3 cells. As to the kind of experiment: Toxicity in MOLT-3 cells, changes in cell morphology by microscopic examination. The data set is classed as cell-based, human. The procedure: (§1) Two human immature T-lymphoblastoid cell lines were used: HSB-2, obtained from American Type Culture Collection (No. CCL 120.1); and MOLT-3, purchased from ABI Technologies (Columbia, Md., USA). The cells were propagated in RPMI 1640 medium supplemented with 10% fetal calf serum, 2 mM L-glutamine, 0.075% sodium bicarbonate and gentamycin. The cultures were incubated at 37° C. in a humidified and CO2 controlled incubator.
(§2) The cells were incubated at 37° C. and subcultivated on days four and seven by two-fold dilution in medium containing fresh test compound or control. On days 10–14, the cells were examined microscopically to score the viral cytopathic effect (CPE) visible by the appearance of large ballooning cells and drug toxicity. Then total DNA was extracted from the infected cells with the QIAamp Blood Kit (Qiagen, Germany), using the manufacturer's instructions, and the DNA extracts were frozen at −20° C. until further analysis.
The antiviral IC50 was calculated by extrapolation and defined as the compound concentration that produced 50% inhibition of virus replication as determined by microscopic examination or quantitation of viral DNA. Toxicity of the compounds was expressed as minimum cytotoxic concentration (MCC), or the lowest compound concentration that caused a microscopically visible alteration in cellular morphology.

Data set [4] relates to HIV-2 (ROD). As to the kind of experiment: Inhibition of HIV-2 syncytium formation in CEM cells. The data set is classed as cell-based. As to conditions: for EC50: Human immunodeficiency virus 2, CCRF-CEM, CEM cells, syncytium formation, day four post infection, read-out: EC50 (ug/ml) HIV-2. A digest of the protocol: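 Human T-lymphoblast CEM cells, suspended at roughly 300,000 cells per ml of culture medium, were infected with about 100 CCID50 of HIV-2 (ROD). Aliquots of 100 μl of infected cells were placed in 200 μl microtiter wells holding 100 μl of serial 5-fold compound dilutions, and syncytium formation was scored microscopically four days after infection.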

For data set [5], the system named is HHV-6 (Z-29 strain, variant B). As to the kind of experiment: Anti-HHV-6 activity in MOLT-3 cells (CPE and viral DNA slot blot). The data set is classed as cell-based, human herpes virus type 6 (HHV-6). As to conditions: Homo sapiens. The procedure:
as §1
The GS strain of HHV-6 variant A was kindly provided by Dr. R. Gallo, while the Z-29 strain of HHV-6 variant B was obtained from ABI Technologies (Columbia, Md., USA). For preparation of virus stocks, suspensions of HSB-2 cells infected with strain GS, or MOLT-3 cells infected with strain Z-29, were collected at 10–12 days post infection, when the cytopathic effect (CPE) was maximal and cells were >90% virus positive (as determined by immunofluorescence detection of HHV-6 antigens). Since the titer of virus released in culture supernatant was insufficient, virus stocks were used as whole cell suspensions, which were relatively stable when kept in aliquots at −80° C.
Stock solutions of the test compounds or of standards were prepared in dimethylsulfoxide or phosphate buffered saline (PBS). Working dilutions for the antiviral assays were prepared by appropriate dilution of the stock solutions in cell culture medium. The antiherpetic drug Foscarnet (PFA, Foscavir® from Astra, Södertälje, Sweden) was used as standard.
On day 0, the GS and Z-29 strains of HHV-6 were inoculated onto HSB-2 cells and MOLT-3 cells, respectively, at a multiplicity of infection of 0.001 CCID50 (50% cell culture infective doses) per cell, and a cell suspension having a cell density of approximately 5×10^6 cells per ml of culture medium. After two hours of virus adsorption at 37° C., the unadsorbed virus was removed by centrifugation and the infected cells were resuspended and transferred to 48-well microtrays containing the test compounds or control in two- to five-fold dilutions. The final cell density of the suspended cells was approximately 0.8×10^6 cells per ml of culture medium.
as §2
A digoxigenin labeled probe specific for strain GS or Z-29, was prepared by PCR reaction in the presence of digoxigenin-dUTP, on a 1-μl aliquot of a DNA extract prepared from infected cells showing manifest CPE. The 5′-3′ primer sequence was GCTAGAACG TATTTGCTGCAGAACG (Seq. Id. No. 1) and […] (Seq. Id. No. 2), delimiting a 259 bp sequence within the U67 gene. The amplified product was separated on agarose gel and extracted from the gel fragment with the QIAquick gel extraction kit (Qiagen, Germany) after which the purified probe was frozen at −20° C.
For quantitation of viral DNA in the infected and drug-treated cell cultures, appropriate aliquots of the total DNA extracts (containing 5 μg of total DNA, as determined spectrophotometrically at 260 nm) were boiled during 10 min, and blotted on a nylon membrane (Hybond-N from Amersham) using a Hoefer slot blot apparatus from Pharmacia (Sweden). After UV cross-linking, the membrane was prehybridized during 30 min at 42° C. with DIG (digoxigenin) easy Hyb solution® (Boehringer Mannheim, Germany). Then, the GS- or Z-29 specific digoxigenin labeled probe was added and allowed to hybridize by incubation overnight at 42° C. […]

Where [6] appears, read: MOLT-3, read-out: EC50 Based on CPE, MOLT-3 cells, Exp. 1.
Where [7] appears, read: MOLT-3, read-out: EC50 Based on CPE, MOLT-3 cells, Exp. 2.
Where [8] appears, read: MOLT-3, read-out: EC50 Based on CPE, MOLT-3 cells, Exp. 3.
[9] abbreviates: MOLT-3, read-out: EC50 Based on Viral DMA Detection, MOLT-3 cells, Exp. 1.
The mark [10] stands for this setting: MOLT-3, read-out: EC50 Based on Viral DMA Detection, MOLT-3 cells, Exp. 2.
[11] abbreviates: MOLT-3, read-out: EC50 Based on Viral DMA Detection, MOLT-3 cells, Exp. 3.

In the case of `O=S(=O)(Cc1ccccc1)c1cccc[n+]1[O-]` [Compound 6, 2-(Benzylsulfonyl)-pyridine-N-oxide], the EC50 in data set [1] is 4.4 µg/mL (≈ 17.7 µM); in data set [2] it was 19.5 µg/mL (≈ 78.2 µM); in data set [4] it was 4.4 µg/mL (≈ 17.7 µM); in data set [5] (setting [6]) it was 17.1 µg/mL (≈ 68.6 µM); in data set [5] (setting [7]), 8.7 µg/mL (≈ 34.9 µM); in data set [5] (setting [8]) it was 12.9 µg/mL (≈ 51.7 µM). For the same molecule, the EC50 in data set [5] (setting [9]) was 28.1 µg/mL (≈ 113 µM); in data set [5] (setting [10]) it was 17.3 µg/mL (≈ 69.4 µM); in data set [5] (setting [11]), 22.7 µg/mL (≈ 91.1 µM). In addition, the “MIC (concentration causing minimal changes in cell morphology)” value in data set [3] (Exp. 1), in data set [3] (Exp. 2) and in data set [3] (Exp. 3) was 100 μg/ml in each case.

As for `Cc1ccc(C)c(CS(=O)(=O)c2c(C)ccc[n+]2[O-])c1` [Compound 165, 2-[((2,5-dimethylphenyl)methyl)sulfonyl]-3-methylpyridine-1-oxide], the melting point lay within 171 to 173 °C. For the same molecule, in data set [1], the EC50 turned out to be 0.14 µg/mL (≈ 0.48 µM). Also, the EC50 in data set [4] was above 4 µg/mL. In data set [4] (protection of CEM cells against virus-induced cytopathicity at the concentration in the previous column), the “HIV-2 % Protection” value is 0.0%.

In the case of `O=C(O)P(=O)(O)O` [PFA, Foscarnet, reference compound], the “MIC (concentration causing minimal changes in cell morphology)” value in data set [3] (Exp. 1), in data set [3] (Exp. 2) and in data set [3] (Exp. 3) was above 100 μg/ml in each case. Moreover, the EC50 in data set [5] (setting [6]) amounted to 8.9 µg/mL (≈ 70.6 µM); in data set [5] (setting [7]) it was 4 µg/mL (≈ 31.7 µM); in data set [5] (setting [8]) it was 6.5 µg/mL (≈ 51.6 µM); in data set [5] (setting [9]), 9.4 µg/mL (≈ 74.6 µM); in data set [5] (setting [10]) it was 8.8 µg/mL (≈ 69.8 µM); in data set [5] (setting [11]), 9.1 µg/mL (≈ 72.2 µM).

As for `[O-][n+]1ccccc1[S+]([O-])Cc1ccccc1` (stereo not shown) [Compound 5, 2-(Benzylsulfinyl)-pyridine-N-oxide], the EC50 in data set [1] was 3.4 µg/mL (≈ 14.6 µM); in data set [2], above 50 µg/mL; in data set [4], 2.1 µg/mL (≈ 9 µM); in data set [5] (setting [6]), above 100 µg/mL; in data set [5] (setting [7]), above 200 µg/mL; in data set [5] (setting [8]), above 100 µg/mL. Moreover, the EC50 in data set [5] (setting [9]) and in data set [5] (setting [11]) was above 100 µg/mL each time. For the same molecule, the “Antiviral % Inhibition Davis strain CMV” value in data set [2] (estimate of percent protection at the concentration in the previous column) is recorded as 0.0%. Moreover, the “MIC (concentration causing minimal changes in cell morphology)” value in data set [3] (Exp. 1), in data set [3] (Exp. 2) and in data set [3] (Exp. 3) was 100 μg/ml each time.

For the molecule `Cc1ccc(C)c(CS(=O)(=O)c2cccc[n+]2[O-])c1` [Compound 10, 2-(2,5-Dimethylphenylmethylsulfonyl)pyridine N-oxide], the EC50 in data set [1] worked out at 1.8 µg/mL (≈ 6.49 µM); in data set [2], 10 µg/mL (≈ 36.1 µM); in data set [4], 5.8 µg/mL (≈ 20.9 µM); in data set [5] (setting [6]), 12.6 µg/mL (≈ 45.4 µM); in data set [5] (setting [7]) it was 11.1 µg/mL (≈ 40 µM); in data set [5] (setting [8]), 11.8 µg/mL (≈ 42.5 µM). Besides, the EC50 in data set [5] (setting [9]) was 21.8 µg/mL (≈ 78.6 µM); in data set [5] (setting [10]), 9.4 µg/mL (≈ 33.9 µM); in data set [5] (setting [11]), 15.6 µg/mL (≈ 56.2 µM). The “MIC (concentration causing minimal changes in cell morphology)” value in data set [3] (Exp. 1) is recorded as 50 μg/ml; in data set [3] (Exp. 2), 100 μg/ml; in data set [3] (Exp. 3) it was “≧50 μg/ml”.

As a reminder, the melting point is the temperature of the solid-liquid transition.
